Laboratory results reported in patent US20220169632A1, “METHODS AND MATERIALS FOR INCREASING OR MAINTAINING NICOTINAMIDE MONONUCLEOTIDE ADENYLYL TRANSFERASE-2 (NMNAT2) POLYPEPTIDE LEVELS” (University of Pittsburgh - Of the Commonwealth System of …, priority 2019, published 2022).

Test system: NMNAT2
Assay: NMNAT2-Hibit nano-luciferase activity in stably transfected U87MG cells, various concentrations, 24 hours
Type: cell-based
Conditions: U87MG cells stably transfected with NMNAT2-Hibit luc plasmid
Procedure: Selected compounds were tested in vitro. U87MG cells were stably transfected with NMNAT2-Hibit luc plasmid. Cells were treated with a test compound at various concentrations for 24 hours. Cells were then collected and assayed for nano-luciferase activity.

| Compound | E: compound efficacy for NMNAT2 activation (concentration giving >25% increase in NMNAT2 luciferase activity) |
| --- | --- |
| O=C(NCCc1ccccc1)N1CCc2c(c3ccccc3n2Cc2ccncc2)C1 [BC20335] | + (“+” >25% increase in NMNAT2 luciferase activity at >25 μM.) |
| Cc1ccc(C)c(Cn2cc([C@H]3C[C@@H]3C(=O)NCc3ccccn3)c3ccccc32)c1 (racemic) [BC20366] | + (“+” >25% increase in NMNAT2 luciferase activity at >25 μM.) |
| O=C(NCc1ccncc1)C1CCc2c(c3ccccc3n2Cc2cccc(F)c2)C1 (centres unmarked) [BC20228] | ++ (“++” >25% increase in NMNAT2 luciferase activity at >1 μM ≤25 μM.) |
| Cc1ccc(CNC(=O)C2CCCc3c2c2ccccc2n3Cc2cccc(F)c2)o1 (centres unmarked) [BC20369] | ++ (“++” >25% increase in NMNAT2 luciferase activity at >1 μM ≤25 μM.) |
| O=C(Cn1c2c(c3ccccc31)CC(C(=O)NCC1CCCO1)CC2)NCc1ccco1 (centres unmarked) [BC20237] | ++ (“++” >25% increase in NMNAT2 luciferase activity at >1 μM ≤25 μM.) |
| Cc1ccccc1CNC(=O)Cn1cc(C(=O)c2ccc(Cl)cc2)c2ccccc21 [BC20178] | ++ (“++” >25% increase in NMNAT2 luciferase activity at >1 μM ≤25 μM.) |
| O=C(NCc1cccc(F)c1)N1CCc2c(c3ccccc3n2Cc2cccc(F)c2)C1 [BC20309] | + (“+” >25% increase in NMNAT2 luciferase activity at >25 μM.) |
| CCCCN(CC)Cc1ccc(CNC(=O)c2ccc3c(c2)c(C)c(C)n3Cc2cccc(F)c2)o1 [BC20120] | +++ (“+++” >25% increase in NMNAT2 luciferase activity at ≤1 μM.) |
| Cc1ccc(CNC(=O)C2CCc3c(c4ccccc4n3Cc3ccncc3)C2)o1 (centres unmarked) [BC20279] | + (“+” >25% increase in NMNAT2 luciferase activity at >25 μM.) |
| Cc1ccc(C)c(Cn2c(C)c([C@H]3C[C@@H]3C(=O)NCCc3ccccc3)c3ccccc32)c1 (racemic) [BC20326] | ++ (“++” >25% increase in NMNAT2 luciferase activity at >1 μM ≤25 μM.) |
| COc1cccc(CNC(=O)C2CCCc3c2c2ccccc2n3Cc2cccc(F)c2)c1 (centres unmarked) [BC20375] | + (“+” >25% increase in NMNAT2 luciferase activity at >25 μM.) |
| COc1cccc(CNC(=O)C2CCc3c(c4ccccc4n3Cc3ccncc3)C2)c1 (centres unmarked) [BC20283] | + (“+” >25% increase in NMNAT2 luciferase activity at >25 μM.) |
| Cc1ccc(Cn2cc(C3CCN(Cc4cccc(F)c4)C(=O)C3)c3ccccc32)cc1 (centres unmarked) [BC20231] | ++ (“++” >25% increase in NMNAT2 luciferase activity at >1 μM ≤25 μM.) |
| Cc1ccc(CNC(=O)c2ccc3c(c2)c(C)c(C)n3Cc2ccccc2C)o1 [BC20200] | ++ (“++” >25% increase in NMNAT2 luciferase activity at >1 μM ≤25 μM.) |
| O=C(NCc1cccnc1)C1CCCc2c1c1ccccc1n2Cc1cccc(F)c1 (centres unmarked) [BC20379] | ++ (“++” >25% increase in NMNAT2 luciferase activity at >1 μM ≤25 μM.) |
| O=C(c1ccco1)N1CCN(C(=O)C2CCCc3c2c2ccccc2n3Cc2cccc(F)c2)CC1 (centres unmarked) [BC20376] | + (“+” >25% increase in NMNAT2 luciferase activity at >25 μM.) |
| Cc1ccc(CNC(=O)N2CCc3c(c4ccccc4n3Cc3ccncc3)C2)cc1 [BC20337] | + (“+” >25% increase in NMNAT2 luciferase activity at >25 μM.) |
| Cc1ccc(Cn2c3c(c4ccccc42)C(C(=O)NCC2CCCO2)CCC3)cc1 (centres unmarked) [BC20384] | + (“+” >25% increase in NMNAT2 luciferase activity at >25 μM.) |
| Cc1cccc(NC(=O)c2ccc3c(c2)c(C)c(C)n3Cc2ccccc2F)c1C [BC20246] | ++ (“++” >25% increase in NMNAT2 luciferase activity at >1 μM ≤25 μM.) |
| Cc1ccc(C)c(Cn2c3c(c4ccccc42)CC(C(=O)NCCc2ccccc2)CC3)c1 (centres unmarked) [BC20218] | + (“+” >25% increase in NMNAT2 luciferase activity at >25 μM.) |
| O=C(NCC1CCCO1)N1CCc2c(c3ccccc3n2Cc2ccncc2)C1 (centres unmarked) [BC20358] | + (“+” >25% increase in NMNAT2 luciferase activity at >25 μM.) |
| Cc1ccc(C)c(Cn2c3c(c4ccccc42)CN(C(=O)NCc2ccco2)CC3)c1 [BC20243] | +++ (“+++” >25% increase in NMNAT2 luciferase activity at ≤1 μM.) |

| Compound | E: compound efficacy for NMNAT2 activation (concentration giving >25% increase in NMNAT2 luciferase activity) |
| --- | --- |
| Cc1ccccc1CNC(=O)C1CCc2c(c3ccccc3n2Cc2cccc(F)c2)C1 (centres unmarked) [BC20223] | + (“+” >25% increase in NMNAT2 luciferase activity at >25 μM.) |
| Cc1ccccc1CNC(=O)c1ccc2c(c1)c(C)c(C)n2Cc1ccccc1C [BC20203] | ++ (“++” >25% increase in NMNAT2 luciferase activity at >1 μM ≤25 μM.) |
| O=C(CCCc1cn(Cc2cccc(F)c2)c2ccccc12)NCc1ccccc1F [BC20138] | ++ (“++” >25% increase in NMNAT2 luciferase activity at >1 μM ≤25 μM.) |
| O=C(c1ccco1)N1CCN(C(=O)C2CCc3c(c4ccccc4n3Cc3cccc(F)c3)C2)CC1 (centres unmarked) [BC20257] | + (“+” >25% increase in NMNAT2 luciferase activity at >25 μM.) |
| O=C(CCCc1cn(Cc2ccccc2F)c2ccccc12)NCc1ccco1 [BC20121] | ++ (“++” >25% increase in NMNAT2 luciferase activity at >1 μM ≤25 μM.) |
| COc1cccc(CNC(=O)Cn2cc(C(=O)c3ccc(Cl)cc3)c3ccccc32)c1 [BC20181] | ++ (“++” >25% increase in NMNAT2 luciferase activity at >1 μM ≤25 μM.) |
| Cc1ccc(C)c(Cn2c3c(c4ccccc42)CN(C(=O)NCCc2ccccc2)CC3)c1 [BC20254] | ++ (“++” >25% increase in NMNAT2 luciferase activity at >1 μM ≤25 μM.) |
| COc1ccccc1CNC(=O)CCc1c(C(F)F)n(Cc2cc(C)ccc2C)c2ccccc12 [BC20397] | + (“+” >25% increase in NMNAT2 luciferase activity at >25 μM.) |
| O=C(Cn1cc(C(=O)c2ccc(Cl)cc2)c2ccccc21)NCc1ccncc1 [BC20216] | ++ (“++” >25% increase in NMNAT2 luciferase activity at >1 μM ≤25 μM.) |
| Cc1ccccc1CNC(=O)CCCc1cn(Cc2ccccc2C)c2ccccc12 [BC20153] | ++ (“++” >25% increase in NMNAT2 luciferase activity at >1 μM ≤25 μM.) |
| O=C(CCCc1cn(Cc2ccccc2F)c2ccccc12)NCC1CCCO1 (centres unmarked) [BC20123] | ++ (“++” >25% increase in NMNAT2 luciferase activity at >1 μM ≤25 μM.) |
| Cc1ccc(Cn2cc([C@H]3C[C@@H]3C(=O)NCc3ccccc3C)c3ccccc32)cc1 (racemic) [BC20296] | ++ (“++” >25% increase in NMNAT2 luciferase activity at >1 μM ≤25 μM.) |
| O=C(NCc1cccnc1)C1CCc2c(c3ccccc3n2Cc2cccc(F)c2)C1 (centres unmarked) [BC20258] | ++ (“++” >25% increase in NMNAT2 luciferase activity at >1 μM ≤25 μM.) |
| CCOC(=O)Cn1cc(C2CCNC(=O)C2)c2ccccc21 (centres unmarked) [BC20235] | ++ (“++” >25% increase in NMNAT2 luciferase activity at >1 μM ≤25 μM.) |
| Cc1ccc(Cn2cc(C3CCN(Cc4ccccc4F)C(=O)C3)c3ccccc32)cc1 (centres unmarked) [BC20230] | ++ (“++” >25% increase in NMNAT2 luciferase activity at >1 μM ≤25 μM.) |
| COc1ccccc1CNC(=O)C1CCc2c(c3ccccc3n2CC(=O)NCc2ccco2)C1 (centres unmarked) [BC20240] | ++ (“++” >25% increase in NMNAT2 luciferase activity at >1 μM ≤25 μM.) |
| Cc1cccc(CNC(=O)CCCc2cn(Cc3ccccc3C)c3ccccc23)c1 [BC20154] | + (“+” >25% increase in NMNAT2 luciferase activity at >25 μM.) |
| Cc1ccccc1Cn1c(C)c(C)c2cc(C(=O)NC(C)Cc3ccco3)ccc21 (centres unmarked) [BC20207] | + (“+” >25% increase in NMNAT2 luciferase activity at >25 μM.) |
| O=C(NCCc1ccccc1)C1CCc2c(c3ccccc3n2Cc2cccc(F)c2)C1 (centres unmarked) [BC20227] | ++ (“++” >25% increase in NMNAT2 luciferase activity at >1 μM ≤25 μM.) |
| Cc1ccc(C)c(Cn2cc([C@H]3C[C@@H]3C(=O)N3CCc4occc4C3)c3ccccc32)c1 (racemic) [BC20359] | + (“+” >25% increase in NMNAT2 luciferase activity at >25 μM.) |
| Cc1cccc(CNC(=O)CCc2c(C(F)F)n(Cc3cc(C)ccc3C)c3ccccc23)c1 [BC20396] | ++ (“++” >25% increase in NMNAT2 luciferase activity at >1 μM ≤25 μM.) |
| Cc1ccc(C)c(Cn2cc([C@H]3C[C@@H]3C(=O)NCc3cccnc3)c3ccccc32)c1 (racemic) [BC20351] | + (“+” >25% increase in NMNAT2 luciferase activity at >25 μM.) |
